This passage reports activity coefficient results from the NIST ThermoML archive (doi:10.1016/j.jct.2010.02.006).

± gives the expanded uncertainty stated by the source.

This data set can be described thus: activity coefficient (dimensionless); of the first substance listed, at infinite dilution; xn = mol fraction of the nth substance listed. As to conditions: 101.3 kPa, Liquid, Chromatography, x1 = 0.

As for `CO` [methanol] + CCn1cc[n+](C)c1.N#C[B-](C#N)(C#N)C#N, the activity coefficient (303.5 K) came out at 1.13 ± 0.09; the activity coefficient (313.3 K) is 1.05 ± 0.09; the activity coefficient (323.3 K) came out at 0.97 ± 0.08; the activity coefficient (333.1 K) came out at 0.91 ± 0.08; the activity coefficient (343.1 K) was 0.85 ± 0.07.
With `Cc1ccc(C)cc1` [1,4-dimethylbenzene] + CCn1cc[n+](C)c1.N#C[B-](C#N)(C#N)C#N, the activity coefficient runs as follows: (303.7 K) 2.78 ± 0.24; (313.2 K) 2.85 ± 0.25; (323.2 K) 2.87 ± 0.25; (333.3 K) 2.85 ± 0.25; (343.2 K) 2.84 ± 0.24.
For the compound `C#CCCCCCC` [1-octyne] + CCn1cc[n+](C)c1.N#C[B-](C#N)(C#N)C#N, the activity coefficient runs as follows: (303.5 K) 9.64 ± 0.83; (313.3 K) 9.42 ± 0.81; (323.3 K) 9.11 ± 0.79; (333.1 K) 8.84 ± 0.76; (342.8 K) 8.58 ± 0.74.
`CCCCCCCC` [octane] + CCn1cc[n+](C)c1.N#C[B-](C#N)(C#N)C#N: the activity coefficient is, setting by setting: (302.8 K) 58.9 ± 5.1; (313.4 K) 52.5 ± 4.5; (323.1 K) 46.7 ± 4; (332.8 K) 40.7 ± 3.5; (343.4 K) 34.9 ± 3.
With `C#CCCC` [1-pentyne] + CCn1cc[n+](C)c1.N#C[B-](C#N)(C#N)C#N, the activity coefficient by setting is: (303.5 K) 2.72 ± 0.23; (313.3 K) 2.61 ± 0.23; (323.3 K) 2.5 ± 0.22; (333.1 K) 2.38 ± 0.21; (343.1 K) 2.29 ± 0.2.
For the compound `CCCCC` [pentane] + CCn1cc[n+](C)c1.N#C[B-](C#N)(C#N)C#N, the activity coefficient (302.8 K) turned out to be 10.3 ± 0.89; the activity coefficient (313.4 K) is 8.21 ± 0.71; the activity coefficient (323.1 K) turned out to be 7.05 ± 0.61; the activity coefficient (332.8 K) was found to be 5.92 ± 0.51; the activity coefficient (343.4 K) amounted to 4.88 ± 0.42.
For the compound `C#CCCCC` [1-hexyne] + CCn1cc[n+](C)c1.N#C[B-](C#N)(C#N)C#N, the activity coefficient (303.5 K) worked out at 4.18 ± 0.36; the activity coefficient (313.3 K) amounted to 4.04 ± 0.35; the activity coefficient (323.3 K) is 3.92 ± 0.34; the activity coefficient (333.1 K) is 3.77 ± 0.33; the activity coefficient (343.1 K) is 3.58 ± 0.31.
For the compound `CCCCCC` [hexane] + CCn1cc[n+](C)c1.N#C[B-](C#N)(C#N)C#N, the activity coefficient runs as follows: (302.8 K) 21 ± 1.8; (313.4 K) 17.4 ± 1.5; (323.1 K) 15.1 ± 1.3; (332.8 K) 12.5 ± 1.1; (343.4 K) 10.3 ± 0.89.
The corresponding values for `C1CCCCC1` [cyclohexane] + CCn1cc[n+](C)c1.N#C[B-](C#N)(C#N)C#N are 13.8 ± 1.2, 12.4 ± 1.1, 11.2 ± 0.97, 9.85 ± 0.85 and 8.64 ± 0.75.
As to `CC1CCCCC1` [methylcyclohexane] + CCn1cc[n+](C)c1.N#C[B-](C#N)(C#N)C#N, the activity coefficient by setting is: (302.8 K) 20.7 ± 1.8; (313.4 K) 18.9 ± 1.6; (323.1 K) 16.9 ± 1.5; (332.8 K) 15.2 ± 1.3; (343.4 K) 13.3 ± 1.1.
Take `c1ccccc1` [benzene] + CCn1cc[n+](C)c1.N#C[B-](C#N)(C#N)C#N: the activity coefficient runs as follows: (303.6 K) 1.31 ± 0.11; (313.3 K) 1.31 ± 0.11; (323.2 K) 1.34 ± 0.11; (333.3 K) 1.31 ± 0.11; (343.2 K) 1.3 ± 0.11.
In the case of `C=CCCCCCCCC` [1-decene] + CCn1cc[n+](C)c1.N#C[B-](C#N)(C#N)C#N, the activity coefficient is, setting by setting: (303.5 K) 60.5 ± 5.2; (313.2 K) 56 ± 4.8; (323.3 K) 51.5 ± 4.5; (333.1 K) 47.8 ± 4.1; (343.1 K) 43.4 ± 3.8.
For the compound `CCCCCCCCC` [nonane] + CCn1cc[n+](C)c1.N#C[B-](C#N)(C#N)C#N, the activity coefficient (302.8 K) was 85 ± 7.4; the activity coefficient (313.4 K) turned out to be 78.1 ± 6.8; the activity coefficient (323.1 K) was found to be 70.8 ± 6.1; the activity coefficient (332.8 K) came to 63.5 ± 5.5; the activity coefficient (343.4 K) stood at 55.3 ± 4.8.
Regarding `Cc1ccccc1C` [1,2-dimethylbenzene] + CCn1cc[n+](C)c1.N#C[B-](C#N)(C#N)C#N, the activity coefficient worked out at 2.49 ± 0.21 (303.6 K); 2.53 ± 0.22 (313.3 K); 2.58 ± 0.22 (323.2 K); 2.56 ± 0.22 (333.2 K); 2.54 ± 0.22 (343.1 K).
For the compound `CCO` [ethanol] + CCn1cc[n+](C)c1.N#C[B-](C#N)(C#N)C#N, the activity coefficient is 1.64 ± 0.14 (303.5 K); 1.5 ± 0.13 (313.3 K); 1.37 ± 0.12 (323.3 K); 1.27 ± 0.11 (333.1 K); 1.16 ± 0.1 (343.1 K).
In the same order, the values of `C#CCCCCC` [1-heptyne] + CCn1cc[n+](C)c1.N#C[B-](C#N)(C#N)C#N are 6.33 ± 0.55, 6.15 ± 0.53, 5.97 ± 0.52, 5.78 ± 0.5 and 5.59 ± 0.48.
Regarding `C=CCCCCCC` [oct-1-ene] + CCn1cc[n+](C)c1.N#C[B-](C#N)(C#N)C#N, the activity coefficient is, setting by setting: (303.5 K) 30.1 ± 2.6; (313.2 K) 26.8 ± 2.3; (323.3 K) 24 ± 2.1; (333.1 K) 21.5 ± 1.9; (343.1 K) 19 ± 1.6.
In the case of `CCc1ccccc1` [ethylbenzene] + CCn1cc[n+](C)c1.N#C[B-](C#N)(C#N)C#N, the activity coefficient by setting is: (303.6 K) 3 ± 0.26; (313.2 K) 3 ± 0.26; (323.1 K) 3.05 ± 0.26; (333.2 K) 2.97 ± 0.26; (343.3 K) 2.92 ± 0.25.
Consider `Cc1cccc(C)c1` [1,3-dimethylbenzene] + CCn1cc[n+](C)c1.N#C[B-](C#N)(C#N)C#N, for which the activity coefficient by setting is: (303.6 K) 2.92 ± 0.25; (313.2 K) 2.99 ± 0.26; (323.2 K) 3.03 ± 0.26; (333.1 K) 3.01 ± 0.26; (343.1 K) 2.99 ± 0.26.
Turning to `C=CCCCC` [hex-1-ene] + CCn1cc[n+](C)c1.N#C[B-](C#N)(C#N)C#N, the activity coefficient (303.5 K) was 11.3 ± 0.97; the activity coefficient (313.2 K) was found to be 9.74 ± 0.84; the activity coefficient (323.3 K) worked out at 8.39 ± 0.72; the activity coefficient (333.1 K) was found to be 7.35 ± 0.63; the activity coefficient (343.1 K) is 6.27 ± 0.54.
In the case of `CCCCCCC` [heptane] + CCn1cc[n+](C)c1.N#C[B-](C#N)(C#N)C#N, the activity coefficient (302.8 K) was 37.6 ± 3.3; the activity coefficient (313.4 K) was determined as 32.2 ± 2.8; the activity coefficient (323.1 K) came to 28.1 ± 2.4; the activity coefficient (332.8 K) is 23.8 ± 2.1; the activity coefficient (343.4 K) came out at 19.9 ± 1.7.
With `CCCO` [propan-1-ol] + CCn1cc[n+](C)c1.N#C[B-](C#N)(C#N)C#N, the activity coefficient amounted to 2.12 ± 0.18 (303.5 K); 1.92 ± 0.17 (313.3 K); 1.74 ± 0.15 (323.3 K); 1.6 ± 0.14 (333.1 K); 1.46 ± 0.12 (343.1 K).
As for `Cc1ccccc1` [toluene] + CCn1cc[n+](C)c1.N#C[B-](C#N)(C#N)C#N, the activity coefficient was 1.9 ± 0.16 (303.6 K); 1.92 ± 0.16 (313.2 K); 1.98 ± 0.17 (323.1 K); 1.94 ± 0.17 (333.2 K); 1.92 ± 0.16 (343.3 K).
